Assay: recombinant UMI read abundance after kanamycin selection (control-corrected) (log10(CPM+1)); higher = more efficient recombination; extreme values may be limits of the assay; sequences stand for … in AGTGCAGAGAAAATCGGCCAGTTTTCTCTGCCTGCAGTCCGCATGCCGTGGGACCCCTTGGGTTCTAACCTGTTGCCTAGATTTATGCAGCGGACTGCCTTTCTCCCAAAGTGATAAACCGG…AGGTTGGTTTCACT; site = the 11-nt donor
Procedure, shortened: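 The measure is log10(CPM+1) for recombinant UMIs. These were PCR-amplified across the donor–target junction and sequenced after Escherichia coli carrying a donor and donor-binding-loop pair library and a target plasmid with T7-inducible IS621 bridge recombinase was plated on IPTG (0.07 mM) plus kanamycin or unselected. CPM were averaged over two replicates and scaled by control-derived factors.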
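Also: IS621 bridge recombinase in Escherichia coli cells against a fixed T5 target plasmid.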

Sequence | recombinant UMI read abundance (log10)
CTGGAAACATGGACCGGTTTTCCCGGTAATCCGTATTTGGT (site CTGGAAACTAC) | 1.92
CTGGAATCATGGACCGGTTTTCCCGGTAATCCGTATTTGCA (site CTGGAAACTTG) | 1.56
CTGGAATCATGGACCGGTTTTCCCGGTAATCCGTATTTGCA (site CTGGAACCTTG) | 0
CTGGAATCATGGACCGGTTTTCCCGGTAATCCGTATTTGCA (site CTGGAAGCTTG) | 0
CTGGAATCATGGACCGGTTTTCCCGGTAATCCGTATTTGCA (site CTGGAATCTTG) | 2.19
CTGGCATCATGGACCGGTTTTCCCGGTAATCCGTATTTGGC (site CTGGCATCTGC) | 2.75
CTGGCGTCATGGACCGGTTTTCCCGGTAATCCGTATTTGAG (site CTGGCGTCTCT) | 0.929
CTGGGAACATGGACCGGTTTTCCCGGTAATCCGTATTTGCA (site CTGGAAACTTG) | 1.87
CTGGGAACATGGACCGGTTTTCCCGGTAATCCGTATTTGCA (site CTGGCAACTTG) | 0.789
CTGGGAACATGGACCGGTTTTCCCGGTAATCCGTATTTGCA (site CTGGGAACTTG) | 2.39
CTGGGAACATGGACCGGTTTTCCCGGTAATCCGTATTTGCA (site CTGGTAACTTG) | 0.262
CTGGGCGCATGGACCGGTTTTCCCGGTAATCCGTATTTGCA (site AATACGCCTAT) | 0.0174
CTGGTATCATGGACCGGTTTTCCCGGTAATCCGTATTTGCC (site CTAGTATCTGT) | 0
CTGGTATCATGGACCGGTTTTCCCGGTAATCCGTATTTGCC (site CTGGTATCTGG) | 0
CTGGTTACATGGACCGGTTTTCCCGGTAATCCGTATTTGGC (site CTGGTTACTGC) | 1.74
CTGTACGCATGGACCGGTTTTCCCGGTAATCCGTATTTGGT (site CTGTACGCTAC) | 1.26
CTGTAGCCATGGACCGGTTTTCCCGGTAATCCGTATTTGAT (site CTGTAGCCTAT) | 0.748
CTGTAGGCATGGACCGGTTTTCCCGGTAATCCGTATTTGGC (site ATGTAGGCTGC) | 0.626
CTGTAGGCATGGACCGGTTTTCCCGGTAATCCGTATTTGGC (site CTGTAGGCTGC) | 2.01

Sequence | recombinant UMI read abundance (log10)
CTGTAGGCATGGACCGGTTTTCCCGGTAATCCGTATTTGGC (site GTGTAGGCTGC) | 0
CTGTAGGCATGGACCGGTTTTCCCGGTAATCCGTATTTGGC (site TTGTAGGCTGC) | 0
CTGTAGGCATGGACCGGTTTTCCCGGTAATCCGTATTTGGG (site CTGTAGGCTCC) | 0.27
CTGTAGTCATGGACCGGTTTTCCCGGTAATCCGTATTTGTC (site CTGTAGTCTGA) | 3.24
CTGTCGCCATGGACCGGTTTTCCCGGTAATCCGTATTTGCG (site CTGTCGCCTCG) | 0.00856
CTGTGCGCATGGACCGGTTTTCCCGGTAATCCGTATTTGAC (site TCCCTGTCTTC) | 0.0087
CTGTTACCATGGACCGGTTTTCCCGGTAATCCGTATTTGCT (site CTGATACCTAG) | 0
CTGTTACCATGGACCGGTTTTCCCGGTAATCCGTATTTGCT (site CTGCTACCTAG) | 0.146
CTGTTACCATGGACCGGTTTTCCCGGTAATCCGTATTTGCT (site CTGGTACCTAG) | 0
CTGTTACCATGGACCGGTTTTCCCGGTAATCCGTATTTGCT (site CTGTTACCTAG) | 0
CTGTTTACATGGACCGGTTTTCCCGGTAATCCGTATTTGCT (site CAGTTTACTAG) | 0.405
CTGTTTACATGGACCGGTTTTCCCGGTAATCCGTATTTGCT (site CCGTTTACTAG) | 1.15
CTGTTTACATGGACCGGTTTTCCCGGTAATCCGTATTTGCT (site CGGTTTACTAG) | 0
CTGTTTACATGGACCGGTTTTCCCGGTAATCCGTATTTGCT (site CTGTTTACTAG) | 2.02
CTTAGCTCATGGACCGGTTTTCCCGGTAATCCGTATTTGCT (site CTTAGCTCTAG) | 0
CTTCAGCCATGGACCGGTTTTCCCGGTAATCCGTATTTGGA (site CTTCAGCCTTC) | 0
CTTCCCTCATGGACCGGTTTTCCCGGTAATCCGTATTTGTA (site CTTCACTCTTA) | 0.00365
CTTCCCTCATGGACCGGTTTTCCCGGTAATCCGTATTTGTA (site CTTCCCTCTTA) | 2.49
CTTCCCTCATGGACCGGTTTTCCCGGTAATCCGTATTTGTA (site CTTCGCTCTTA) | 0.00376

Sequence | recombinant UMI read abundance (log10)
CTTCCCTCATGGACCGGTTTTCCCGGTAATCCGTATTTGTA (site CTTCTCTCTTA) | 0.434
CTTCTAACATGGACCGGTTTTCCCGGTAATCCGTATTTGCG (site CTTCTAACTCG) | 0.213
CTTCTCGCATGGACCGGTTTTCCCGGTAATCCGTATTTGTA (site CTTCTCACTTA) | 0.459
CTTCTCGCATGGACCGGTTTTCCCGGTAATCCGTATTTGTA (site CTTCTCCCTTA) | 0.0264
CTTCTCGCATGGACCGGTTTTCCCGGTAATCCGTATTTGTA (site CTTCTCGCTTA) | 1.29
CTTCTCGCATGGACCGGTTTTCCCGGTAATCCGTATTTGTA (site CTTCTCTCTTA) | 0.0056
CTTCTCTCATGGACCGGTTTTCCCGGTAATCCGTATTTGGA (site CTTCTCTCTTA) | 0.0983
CTTCTCTCATGGACCGGTTTTCCCGGTAATCCGTATTTGGA (site CTTCTCTCTTC) | 1.35
CTTCTCTCATGGACCGGTTTTCCCGGTAATCCGTATTTGGA (site CTTCTCTCTTG) | 0
CTTCTCTCATGGACCGGTTTTCCCGGTAATCCGTATTTGGA (site CTTCTCTCTTT) | 0.925
CTTCTCTCATGGACCGGTTTTCCCGGTAATCCGTATTTGTC (site CTTCTCTCTAA) | 1.6
CTTCTCTCATGGACCGGTTTTCCCGGTAATCCGTATTTGTC (site CTTCTCTCTCA) | 0.0104
CTTCTCTCATGGACCGGTTTTCCCGGTAATCCGTATTTGTC (site CTTCTCTCTGA) | 2.45
CTTCTCTCATGGACCGGTTTTCCCGGTAATCCGTATTTGTC (site CTTCTCTCTTA) | 0.836
CTTGAAACATGGACCGGTTTTCCCGGTAATCCGTATTTGCA (site CTAGAAACTTG) | 1.31
CTTGAAACATGGACCGGTTTTCCCGGTAATCCGTATTTGCA (site CTCGAAACTTG) | 0.00453
CTTGAAACATGGACCGGTTTTCCCGGTAATCCGTATTTGCA (site CTGGAAACTTG) | 0.538
CTTGAAACATGGACCGGTTTTCCCGGTAATCCGTATTTGCA (site CTTGAAACTTG) | 2.07
CTTGACGCATGGACCGGTTTTCCCGGTAATCCGTATTTGGT (site CTTGACGCTAC) | 0.601

Reference: the supplement of paper PMC11208160
